Assay results from patent publication US10173991B2, “Sulfone amide linked benzothiazole inhibitors of endothelial lipase” (BRISTOL-MYERS SQUIBB COMPANY, priority 2014, dated 2019).

target: Endothelial lipase (EL) (Homo sapiens (Human), UniProt Q9Y5X9); assay: Endothelial lipase (EL) enzymatic assay with fluorescent substrate A10070 in DMPG vesicles; assay type: biochemical
In short: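 Vesicles prepared: A10070 dried with DMPG, resuspended in HEPES pH 8.0/NaCl/EDTA, sonicated on ice. Enzyme incubated with compound 30 min at 37° C. Reaction started with 1:10 diluted vesicles. Fluorescence (490/530 nm) followed 60 min; slope from 300–900 secs gives rate.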

Sequence of Endothelial lipase (EL) (Q9Y5X9 21-500): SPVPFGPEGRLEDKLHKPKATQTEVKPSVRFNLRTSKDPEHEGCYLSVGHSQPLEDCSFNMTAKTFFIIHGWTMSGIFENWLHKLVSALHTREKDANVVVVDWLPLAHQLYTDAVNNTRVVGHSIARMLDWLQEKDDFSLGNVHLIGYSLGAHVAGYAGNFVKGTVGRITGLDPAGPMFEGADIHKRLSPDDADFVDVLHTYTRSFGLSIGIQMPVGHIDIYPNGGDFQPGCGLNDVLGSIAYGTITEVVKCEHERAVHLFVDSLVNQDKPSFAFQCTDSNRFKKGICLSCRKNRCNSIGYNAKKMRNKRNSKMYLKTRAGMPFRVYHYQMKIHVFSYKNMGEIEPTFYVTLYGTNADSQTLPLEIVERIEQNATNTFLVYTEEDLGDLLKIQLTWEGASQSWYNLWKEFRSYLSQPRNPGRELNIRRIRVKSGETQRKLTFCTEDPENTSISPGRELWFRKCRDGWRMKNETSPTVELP

| Compound | IC50 [nM] |
| --- | --- |
| COCCS(=O)(=O)C(C(=O)NCC(=O)NC1CC1)c1nc2cc(C(F)(F)F)c(-c3ccc(C4CC4)nc3)cc2s1 (stereo not drawn) [Example 164, N-[(cyclopropyl-carbamoyl)methyl]-2-[6-(6-cyclopropyl-pyridin-3-yl)-5-(trifluoromethyl)-1,3-benzothiazol-2-yl]-2-(2-methoxyethane-sulfonyl) acetamide] | 17 |
| O=C(CNC(=O)C(c1nc2cc(F)c(-c3ccc(NC(=O)OCc4ccccc4)cc3)cc2s1)S(=O)(=O)CCCC(F)(F)F)NC1CC1 (stereo not drawn) [Example 46, benzyl N-{4-[2-({[(cyclopropyl-carbamoyl)methyl]carbamoyl}(4,4,4-trifluorobutane-sulfonyl)methyl)-5-fluoro-1,3-benzothiazol-6-yl]phenyl}carbamate] | 2 |
| COCCS(=O)(=O)C(C(=O)NCC(=O)NC1CC1)c1nc2cc(F)c(-c3ccc(NC(=O)OCc4nccs4)cc3)cc2s1 (stereo not drawn) [Example 524, 1,3-thiazol-2-ylmethyl N-{4-[2-({[(cyclopropyl-carbamoyl)methyl]carbamoyl}(2-methoxyethane-sulfonyl)methyl)-5-fluoro-1,3-benzothiazol-6-yl]phenyl} carbamate] | 13 |
| O=C(CNC(=O)C(c1nc2ccc(-c3cccnc3F)cc2s1)S(=O)(=O)Cc1ccc(F)cc1)NC1CC1 (stereo not drawn) [Example 229, N-[(cyclopropyl-carbamoyl)methyl]-2-[(4-fluorophenyl)methanesulfonyl]-2-[6-(2-fluoropyridin-3-yl)-1,3-benzothiazol-2-yl]acetamide] | 150 |
| COCCS(=O)(=O)C(C(=O)NCC(=O)NC1CC1)c1nc2cc(-c3ccc(F)nc3C)ccc2s1 (stereo not drawn) [Example 88, N-[(cyclopropyl-carbamoyl)methyl]-2-[5-(6-fluoro-2-methylpyridin-3-yl)-1,3-benzothiazol-2-yl]-2-(2-methoxyethane-sulfonyl) acetamide] | 82 |
| CC(C)Oc1ccc(-c2cc3sc(C(C(=O)NCC(=O)NC4CC4)S(=O)(=O)C(C)C)nc3cc2F)cn1 (stereo not drawn) [Example 235, N-[(cyclopropyl-carbamoyl)methyl]-2-{5-fluoro-6-[6-(propan-2-yloxy)pyridin-3-yl]-1,3-benzothiazol-2-yl}-2-(propane-2-sulfonyl) acetamide] | 6 |
| CS(=O)(=O)C(C(=O)NCC(=O)NC1CC1)c1nc2cc(F)c(-c3cccc4c3CC(=O)N4)cc2s1 (stereo not drawn) [Example 371, N-[(cyclopropyl-carbamoyl)methyl]-2-[5-fluoro-6-(2-oxo-2,3-dihydro-1H-indol-4-yl)-1,3-benzothiazol-2-yl]-2-methanesulfonyl-acetamide] | 5 |
| O=C(CNC(=O)C(c1nc2cc(F)c(-c3ccc(NC(=O)OCc4ccccc4)nc3)cc2s1)S(=O)(=O)CCN1CCOCC1)NC1CC1 (stereo not drawn) [Example 424, benzyl N-{5-[2-({[(cyclopropyl-carbamoyl)methyl]carbamoyl}[2-(morpholin-4-yl)ethanesulfonyl]methyl)-5-fluoro-1,3-benzothiazol-6-yl]pyridin-2-yl} carbamate] | 15 |
| CS(=O)(=O)C(C(=O)NCC(=O)NC1CC1)c1nc2cc(F)c(-c3ccc(C(=O)NCCC#N)cc3)cc2s1 (stereo not drawn) [Example 41, N-(2-cyanoethyl)-4-[2-({[(cyclopropyl-carbamoyl)methyl]carbamoyl} (methanesulfonyl)methyl)-5-fluoro-1,3-benzothiazol-6-yl]benzamide] | 5 |
| COCCS(=O)(=O)C(C(=O)NCC(=O)NC1CC1)c1nc2cc(C)c(-c3cnc(C)nc3)cc2s1 (stereo not drawn) [Example 174, N-[(cyclopropyl-carbamoyl)methyl]-2-(2-methoxyethane-sulfonyl)-2-[5-methyl-6-(2-methylpyrimidin-5-yl)-1,3-benzothiazol-2-yl]acetamide] | 35 |
| COCCS(=O)(=O)C(C(=O)NCC(=O)NC1CC1)c1nc2ccc(-c3cc(C)nn3C)cc2s1 (stereo not drawn) [Example 317, N-[(cyclopropyl-carbamoyl)methyl]-2-[6-(1,3-dimethyl-1H-pyrazol-5-yl)-1,3-benzothiazol-2-yl]-2-(2-methoxyethane-sulfonyl)acetamide] | 4 |
| Cc1cc(-c2cc3sc(C(C(=O)NCC(=O)NC4CC4)S(=O)(=O)C(C)C)nc3cc2F)ccn1 (stereo not drawn) [Example 245, N-[(cyclopropyl-carbamoyl)methyl]-2-[5-fluoro-6-(2-methylpyridin-4-yl)-1,3-benzothiazol-2-yl]-2-(propane-2-sulfonyl)acetamide] | 12 |
| COCCS(=O)(=O)C(C(=O)NCC(=O)NC1CC1)c1nc2cc(F)c(-c3ccc4c(c3)CNC4=O)cc2s1 (stereo not drawn) [Example 150, N-[(cyclopropyl-carbamoyl)methyl]-2-[5-fluoro-6-(1-oxo-2,3-dihydro-1H-isoindol-5-yl)-1,3-benzothiazol-2-yl]-2-(2-methoxyethane-sulfonyl) acetamide] | 2 |

Results, then the molecule that gave them:

| IC50 [nM] | Compound |
| --- | --- |
| 3 | N#CCCNC(=O)c1ccc(-c2cc3sc(C(C(=O)NCC(=O)NC4CC4)S(=O)(=O)CCC(F)(F)F)nc3cc2F)cc1 (stereo not drawn) [Example 44, N-(2-cyanoethyl)-4-[2-({[(cyclopropyl-carbamoyl)methyl]carbamoyl}(3,3,3-trifluoropropane-sulfonyl)methyl)-5-fluoro-1,3-benzothiazol-6-yl] benzamide] |
| 7 | O=C(CNC(=O)C(c1nc2c(F)cc(-c3ccc4[nH]c(=O)ccc4c3)cc2s1)S(=O)(=O)c1ccc(F)cc1)NC1CC1 (stereo not drawn) [Example 475, N-[(cyclopropyl-carbamoyl)methyl]-2-[4-fluoro-6-(2-oxo-1,2-dihydroquinolin-6-yl)-1,3-benzothiazol-2-yl]-2-(4-fluorobenzene-sulfonyl)acetamide] |
| 3 | O=C(CNC(=O)C(c1nc2cc(F)c(-c3ccc(NC(=O)OCC4CC4)cc3)cc2s1)S(=O)(=O)C1CC1)NC1CC1 (stereo not drawn) [Example 530, cyclopropylmethyl N-(4-{2-[(cyclopropane-sulfonyl) ({[(cyclopropyl-carbamoyl)methyl]carbamoyl})methyl]-5-fluoro-1,3-benzothiazol-6-yl}phenyl) carbamate] |
| 10 | COCCS(=O)(=O)C(C(=O)NCC(=O)NC1CC1)c1nc2ccc(-c3ccc(C(=O)N4CC(F)C4)cc3)cc2s1 (stereo not drawn) [Example 404] |
| 150 | COCCS(=O)(=O)C(C(=O)NCC(=O)NC1CC1)c1nc2ccc(-c3cccc(F)n3)cc2s1 (stereo not drawn) [Example 314, N-[(cyclopropyl-carbamoyl)methyl]-2-[6-(6-fluoropyridin-2-yl)-1,3-benzothiazol-2-yl]-2-(2-methoxyethane-sulfonyl)acetamide] |
| 85 | COCCS(=O)(=O)C(C(=O)NCC(=O)NC1CC1)c1nc2ccc(-c3cccnc3Cl)cc2s1 (stereo not drawn) [Example 297, 2-[6-(2-chloropyridin-3-yl)-1,3-benzothiazol-2-yl]-N-2-(2-methoxyethane-sulfonyl)acetamide] |
| 38 | COCCS(=O)(=O)C(C(=O)NCC(=O)NC1CC1)c1nc2cc(-c3ccc(C(=O)N4CCOCC4)cc3)ccc2s1 (stereo not drawn) [Example 337, N-[(cyclopropyl-carbamoyl)methyl]-2-(2-methoxyethane-sulfonyl)-2-{5-[4-(morpholine-4-arbonyl)phenyl]-1,3-benzothiazol-2-yl}acetamide] |
| 9 | CC(C)S(=O)(=O)C(C(=O)NCC(=O)NC1CC1)c1nc2cc(F)c(-c3ccc(NC(N)=O)cc3)cc2s1 (stereo not drawn) [Example 5, 2-{6-[4-(carbamoyl-amino)phenyl]-5-fluoro-1,3-benzothiazol-2-yl}-N-[(cyclopropyl-carbamoyl)methyl]-2-(propane-2-sulfonyl) acetamide] |
